Source: the supplement of paper PMC11061612

What was measured:
Assay in all cases: combination Emax (second highest fraction inhibited in the dose matrix, 72 h); higher = more inhibition; extreme values may be limits of the assay
[1] = test system: KE-37 (T-Lymphoblastic Leukemia)
Procedure, shortened: (§1)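 Bliss excess equals the observed combination effect minus the expected value EA + EB − EA·EB, where EA and EB are the effects of each agent alone. Combination Emax is the second-highest inhibition within the matrix. Inhibition was scaled from CellTiter-Glo 2.0 luminescence, with 0 set by vehicle wells and 1 by blank wells, after 72 hours of two-drug dosing of cells plated in 1536-well plates.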

[2] = test system: LB996-RCC (Kidney Carcinoma)
Procedure, shortened: as §1

[3] = test system: LK-2 (Squamous Cell Lung Carcinoma)
Procedure, shortened: as §1

[4] = test system: HSC-39 (Gastric Carcinoma)
Procedure, shortened: as §1

[5] = test system: HCT-15 (Colorectal Carcinoma)
Procedure, shortened: as §1

[6] = test system: RERF-GC-1B (Gastric Carcinoma)
Procedure, shortened: as §1

[7] = test system: CAL-62 (Thyroid Gland Carcinoma)
Procedure, shortened: as §1

[8] = test system: OAW-42 (Ovarian Carcinoma)
Procedure, shortened: as §1

[9] = test system: LN-229 (Glioblastoma)
Procedure, shortened: as §1

[10] = test system: SF268 (Low Grade Glioma)
Procedure, shortened: as §1

[11] = test system: LXF-289 (Lung Adenocarcinoma)
Procedure, shortened: as §1

[12] = test system: RKN (Other Solid Carcinomas)
Procedure, shortened: as §1

[13] = test system: WM793B (Melanoma)
Procedure, shortened: as §1

[14] = test system: RCM-1 (Colorectal Carcinoma)
Procedure, shortened: as §1

[15] = test system: SK-PN-DW (Other Solid Carcinomas)
Procedure, shortened: as §1

[16] = test system: GP5d (Colorectal Carcinoma)
Procedure, shortened: as §1

[17] = test system: 23132-87 (Gastric Carcinoma)
Procedure, shortened: as §1

[18] = test system: TE-8 (Esophageal Squamous Cell Carcinoma)
Procedure, shortened: as §1

[19] = test system: A2058 (Melanoma)
Procedure, shortened: as §1

[20] = test system: CAL-120 (Breast Carcinoma)
Procedure, shortened: as §1

Row | SMILES | combination Emax [1] | combination Emax [2] | combination Emax [3] | combination Emax [4] | combination Emax [5] | combination Emax [6] | combination Emax [7] | combination Emax [8] | combination Emax [9] | combination Emax [10] | combination Emax [11] | combination Emax [12] | combination Emax [13] | combination Emax [14] | combination Emax [15] | combination Emax [16] | combination Emax [17] | combination Emax [18] | combination Emax [19] | combination Emax [20]
1 | CC1(C)CCC(CN2CCN(c3ccc(C(=O)NS(=O)(=O)c4ccc(NCC5CCOCC5)c([N+](=O)[O-])c4)c(Oc4cnc5[nH]ccc5c4)c3)CC2)=C(c2ccc(Cl)cc2)C1 [Venetoclax] + C1CN(CCC1(C(=O)N[C@@H](CCO)C2=CC=C(C=C2)Cl)N)C3=NC=NC4=C3C=CN4 [Capivasertib] (first compound max 1 µM, 7x7, partner max 3 µM) | 0.695 | 0.471 | 0.177 | 0.956 | 0.254 | 0.335 | 0.172 | 0.368 | 0.086 | 0.273 | 0.204 | 0.149 | 0.295 | 0.367 | 0.882 | 0.557 | 0.0322 | 0.424 | 0.323 | 0.227
2 | CC1(C)CCC(CN2CCN(c3ccc(C(=O)NS(=O)(=O)c4ccc(NCC5CCOCC5)c([N+](=O)[O-])c4)c(Oc4cnc5[nH]ccc5c4)c3)CC2)=C(c2ccc(Cl)cc2)C1 [Venetoclax] + C=CCn1c(=O)c2cnc(Nc3ccc(N4CCN(C)CC4)cc3)nc2n1-c1cccc(C(C)(C)O)n1 [AZD1775] (first compound max 1 µM, partner max 1 µM) | 1 | 0.758 | 0.932 | 1 | 0.47 | 0.753 | 0.849 | 0.436 | 0.292 | 0.524 | 0.575 | 0.176 | 0.531 | 0.698 | 0.955 | 0.795 | 0.36 | 0.883 | 0.413 | 0.31
3 | CC1(C)CCC(CN2CCN(c3ccc(C(=O)NS(=O)(=O)c4ccc(NCC5CCOCC5)c([N+](=O)[O-])c4)c(Oc4cnc5[nH]ccc5c4)c3)CC2)=C(c2ccc(Cl)cc2)C1 [Venetoclax] + CCN(CCO)CCCOc1ccc2c(Nc3cc(CC(=O)Nc4cccc(F)c4)[nH]n3)ncnc2c1 [AZD2811] (first compound max 1 µM, 7x7, partner max 1 µM) | 1 | 0.339 | 0.851 | 0.981 | 0.178 | 0.298 | 0.252 | 0.204 | 0.208 | 0.328 | 0.389 | 0.176 | 0.258 | 0.372 | 0.872 | 0.513 | 0.152 | 0.396 | 0.402 | 0.153
4 | CC1(C)CCC(CN2CCN(c3ccc(C(=O)NS(=O)(=O)c4ccc(NCC5CCOCC5)c([N+](=O)[O-])c4)c(Oc4cnc5[nH]ccc5c4)c3)CC2)=C(c2ccc(Cl)cc2)C1 [Venetoclax] + CN(C)CCCOc1ccc(-c2ccc3ncc4c(c3c2)n(C2CCOCC2)c(=O)n4C)cn1 [AZD0156] (first compound max 1 µM, 7x7, partner max 1 µM) | 0.196 | 0.222 | 0.321 | 0.926 | 0.226 | 0.242 | 0.465 | 0.204 | 0.212 | 0.298 | 0.245 | 0.107 | 0.244 | 0.45 | 0.825 | 0.279 | 0.157 | 0.519 | 0.226 | 0.167
5 | CC1(C)CCC(CN2CCN(c3ccc(C(=O)NS(=O)(=O)c4ccc(NCC5CCOCC5)c([N+](=O)[O-])c4)c(Oc4cnc5[nH]ccc5c4)c3)CC2)=C(c2ccc(Cl)cc2)C1 [Venetoclax] + COc1cc(Nc2ncc3c(n2)-c2ccc(Cl)cc2C(c2c(F)cccc2OC)=NC3)ccc1C(=O)O [Alisertib] (first compound max 1 µM, 7x7, partner max 10 µM) | 0.955 | 0.658 | 0.848 | 0.992 | 0.537 | 0.688 | 0.51 | 0.652 | 0.2 | 0.419 | 0.643 | 0.203 | 0.383 | 0.372 | 0.882 | 0.498 | 0 | 0.673 | 0.612 | 0.384
6 | CC1(C)CCC(CN2CCN(c3ccc(C(=O)NS(=O)(=O)c4ccc(NCC5CCOCC5)c([N+](=O)[O-])c4)c(Oc4cnc5[nH]ccc5c4)c3)CC2)=C(c2ccc(Cl)cc2)C1 [Venetoclax] + C[C@@H]1COCCN1C2=NC(=NC(=C2)C3(CC3)[S@](=N)(=O)C)C4=C5C=CNC5=NC=C4 [AZD6738] (first compound max 1 µM, 7x7, partner max 10 µM) | 1 | 0.654 | 0.494 | 1 | 0.71 | 0.428 | 0.83 | 0.561 | 0.582 | 0.64 | 0.554 | 0.226 | 0.814 | 0.78 | 0.929 | 0.739 | 0.433 | 0.793 | 0.788 | 0.384
